Results on twelve compounds are retold here after PubChem BioAssay (NCI).

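Test compounds were applied to cells in 96-well plates for 48 hours at 5 doses. GI50 = concentration required for 50% inhibition of growth. TGI: concentration producing complete growth inhibition.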

Some test systems named below: SK-MEL-28 melanoma; T-47D breast; PC-3 prostate; MALME-3M melanoma; OVCAR-8 ovarian; SF-295 CNS; HS 578T breast; UACC-257 melanoma; SNB-78 CNS; DLD-1 colon.
Holding throughout (assay): inhibition of tumour cell growth, NCI panel, 48 h

With `Cc1nn(-c2nc3ccccc3s2)c(C)c1Oc1ccccc1O`, the GI50 in the assay on SK-MEL-28 melanoma is 10.2 µM; in the assay with T-47D breast, 8.63 µM; in the assay on PC-3 prostate, 6.58 µM; in the assay with MALME-3M melanoma, 12600 nM; with OVCAR-8 ovarian it was 8.04 µM; with SF-295 CNS, 3.2 µM. For the same compound, the GI50 was 10.3 µM in the assay with HS 578T breast and 3.64 µM in the assay on UACC-257 melanoma. Besides, the TGI in the assay on SK-MEL-28 melanoma was 21.8 µM; in the assay with T-47D breast, 34.4 µM; with PC-3 prostate, above 100 µM; in the assay on MALME-3M melanoma, 25.6 µM; in the assay on OVCAR-8 ovarian, 25.8 µM; in the assay with SF-295 CNS, 17.2 µM. Moreover, the TGI with HS 578T breast was 25.2 µM; in the assay with UACC-257 melanoma, 14.7 µM.
For the compound `C/C(=C\C(C)COCc1ccccc1)[C@H](COCc1ccccc1)OCc1ccccc1` (stereo partly drawn), the TGI with SK-MEL-28 melanoma, in the assay with SNB-78 CNS, with OVCAR-8 ovarian and with SF-295 CNS was above 100 µM each time.
Consider `COc1cc(/C=C2\[C@H]3c4c(c(OC)c(C)c(OC)c4OC)C[C@@H](C(=O)N2Cc2ccccc2)N3C(=O)OCC(C)C)c(OC)c(C)c1OC`, for which the TGI with SK-MEL-28 melanoma, in the assay on DLD-1 colon, in the assay with MALME-3M melanoma, in the assay with OVCAR-8 ovarian, in the assay on SF-295 CNS and in the assay on UACC-257 melanoma was above 100 µM in each case.
With `O=c1/c(=C/c2cccc([N+](=O)[O-])c2)sc2nc3ccccc3n12`, the TGI with SK-MEL-28 melanoma, in the assay with SNB-78 CNS, in the assay with DLD-1 colon, in the assay on MALME-3M melanoma, with OVCAR-8 ovarian and in the assay on UACC-257 melanoma was above 100 µM each time.
As for `Oc1ccc2cc(Br)ccc2c1-c1c(O)ccc2cc(Br)ccc12`, the GI50 is 3.68 µM in the assay with SK-MEL-28 melanoma; 4.61 µM in the assay on T-47D breast; 3.24 µM in the assay with PC-3 prostate; 2190 nM in the assay on MALME-3M melanoma; 3.9 µM in the assay with OVCAR-8 ovarian; 2.46 µM with SF-295 CNS. Further, the values for the GI50 in the assay on HS 578T breast and in the assay on UACC-257 melanoma were 3.7 µM and 10.1 µM, respectively. The TGI with SK-MEL-28 melanoma is 13.1 µM; with T-47D breast it was 17.3 µM; in the assay with PC-3 prostate it was 13 µM; in the assay on MALME-3M melanoma, 6.05 µM; in the assay with OVCAR-8 ovarian, 15.4 µM; in the assay with SF-295 CNS, 6.79 µM. For the same compound, the TGI in the assay on HS 578T breast turned out to be 23.3 µM; in the assay on UACC-257 melanoma, 22.6 µM.
Turning to `COc1ccc(CCN2C(=O)C=CC2=O)cc1OC`, the TGI came out at 31.4 µM in the assay with SK-MEL-28 melanoma; 31.9 µM with T-47D breast; 35.1 µM in the assay with PC-3 prostate; 29.8 µM in the assay with MALME-3M melanoma; 44.1 µM in the assay on OVCAR-8 ovarian; 33.5 µM in the assay on SF-295 CNS. Further, the TGI in the assay on HS 578T breast is 99.6 µM; in the assay on UACC-257 melanoma, 30.9 µM.
On to `CCOC(=O)C12CCCC1(O)N(NC(=O)c1ccccc1)C(C)=C2C(=O)OC` (stereo not drawn), for which the TGI in the assay with SNB-78 CNS, in the assay on MALME-3M melanoma, in the assay with OVCAR-8 ovarian, in the assay on SF-295 CNS and in the assay with UACC-257 melanoma was above 100 µM each time.
As to `CC1=NN(c2ccccc2)C(=O)C1N=Nc1ccc([As](=O)(O)O)c(O)c1` (stereo not drawn), the TGI in the assay with SK-MEL-28 melanoma, in the assay on T-47D breast, with PC-3 prostate, in the assay on MALME-3M melanoma, with OVCAR-8 ovarian and in the assay with SF-295 CNS was above 100 µM throughout. Also, the TGI with HS 578T breast and in the assay with UACC-257 melanoma was above 100 µM throughout.
In the case of `Oc1ccc(-c2nnc3sc(-c4ccc(F)c(Oc5ccccc5)c4)nn23)cc1`, the GI50 in the assay on SK-MEL-28 melanoma is above 100 µM; in the assay on T-47D breast, 16.4 µM; with PC-3 prostate, 36.8 µM; with MALME-3M melanoma, 44400 nM; with OVCAR-8 ovarian, 28.3 µM; in the assay on SF-295 CNS it was 23.2 µM. The GI50 in the assay with HS 578T breast was 19.8 µM; in the assay with UACC-257 melanoma it was above 100 µM. Besides, the TGI is above 100 µM in the assay on SK-MEL-28 melanoma; 76.3 µM with T-47D breast; above 100 µM with PC-3 prostate; 98.7 µM in the assay with MALME-3M melanoma; above 100 µM in the assay with OVCAR-8 ovarian; 59.9 µM in the assay with SF-295 CNS. Further, the TGI in the assay on HS 578T breast is 51.4 µM; in the assay with UACC-257 melanoma, above 100 µM.
Take `O=C1CC(c2ccc(N3CCOCC3)cc2)(c2ccsc2)NC(=O)C1Sc1ccccc1Cl` (stereo not drawn): the GI50 in the assay with SK-MEL-28 melanoma is 38.4 µM; in the assay with T-47D breast, 85.9 µM; in the assay on PC-3 prostate, 53.1 µM; in the assay with MALME-3M melanoma, above 100000 nM; with OVCAR-8 ovarian, 7.68 µM; in the assay on SF-295 CNS, 67 µM. Also, the results for the GI50 with HS 578T breast and with UACC-257 melanoma were 3.66 µM and above 100 µM, respectively. Besides, the TGI in the assay with SK-MEL-28 melanoma, in the assay on T-47D breast, with PC-3 prostate, in the assay on MALME-3M melanoma, with OVCAR-8 ovarian and in the assay on SF-295 CNS was above 100 µM in each case. In addition, the TGI with HS 578T breast and in the assay on UACC-257 melanoma was above 100 µM each time.
`O=c1c2cccc(Cl)c2sc2c(NCCCNCCO)nc3ccccc3c12`: the GI50 with SK-MEL-28 melanoma is 1.85 µM; in the assay on T-47D breast, 2.2 µM; in the assay with PC-3 prostate, 3.45 µM; in the assay with MALME-3M melanoma, 1610 nM; with OVCAR-8 ovarian, 2.91 µM; in the assay with SF-295 CNS it was 6.29 µM. The values for the GI50 with HS 578T breast and in the assay with UACC-257 melanoma were 2.95 µM and 10.4 µM, respectively. For the same compound, the TGI in the assay with SK-MEL-28 melanoma came out at 3.54 µM; in the assay with T-47D breast it was 23 µM; in the assay on PC-3 prostate, 15.5 µM; in the assay on MALME-3M melanoma it was 3.15 µM; in the assay with OVCAR-8 ovarian, 11.9 µM; in the assay on SF-295 CNS, 20.2 µM. Also, the TGI in the assay with HS 578T breast was 14.8 µM; with UACC-257 melanoma, 28 µM.
On to `COc1ccc2nc(-c3cc(-c4cc(OC)c(OC)c(OC)c4)n[nH]3)[nH]c2c1`, for which the GI50 was 1.9 µM with SK-MEL-28 melanoma; 0.346 µM in the assay on T-47D breast; 1.03 µM in the assay with PC-3 prostate; 1740 nM in the assay with MALME-3M melanoma; 1.15 µM in the assay with OVCAR-8 ovarian; 1.62 µM with SF-295 CNS. In addition, the GI50 in the assay with HS 578T breast is 2.89 µM; with UACC-257 melanoma, 1.67 µM. For the same compound, the TGI with SK-MEL-28 melanoma worked out at 5.26 µM; in the assay with T-47D breast, 1.92 µM; in the assay with PC-3 prostate it was 4.1 µM; in the assay with MALME-3M melanoma it was 6.4 µM; in the assay with OVCAR-8 ovarian, 3.2 µM; in the assay on SF-295 CNS, 5.24 µM. In addition, the TGI in the assay with HS 578T breast stood at 23.2 µM; with UACC-257 melanoma it was 3.69 µM.
